Assay [1] deals with T1, CDK4 (Cyclin D1 and cyclin-dependent kinase 4) (Homo sapiens, UniProt P11802).
T1 construct: made in house
Briefly: CDK4 substrate phosphorylation assay (Rb protein). The settings on record: read-out: CDK4 inhibition. Format: biochemical. Here is the method: (§1) The compounds of the present invention have valuable pharmacologic properties. Different compounds from this class are particularly effective at inhibiting CDK2 and/or CDK4 enzymes at concentrations, which range from 0.0001 to 1 μM and additionally show specificity relative to other kinases. Substrate phosphorylation assays were carried out as follows:
Cyclin D1 and cyclin-dependent kinase 4 were expressed utilizing a baculovirus expression system. The catalytic activity of CDK4 protein was assayed by measuring the phosphorylation of Rb protein. A truncated Rb protein (residues 773-928 of the native retinoblastoma protein, fused to glutathione S-transferase to facilitate purification) was used as the phosphoryl acceptor. The assay conditions were 100 mM HEPES (N-[2-hydroxyethyl]piperzine-N′-[2-ethanesulfonic acid]), pH 7.5, 0.5 μM GST-Rb protein, 1 μCi/mL [^33P]-ATP (1 nM-20 μM), 5-20 mM MgCl2, 2.5 mM EDTA, 1 mM dithiothieitol, 0.2 mg/mL bovine serum albumin, 2% (v/v) dimethyl sulfoxide (DMSO), CDK4 enzyme (5-50 nM) in a final volume of 50 μL. Reactions were incubated for time periods of 10-60 min at 30° C. and terminated by the addition of 50 μL quench (1 mM ATP/100 mM EDTA, pH 7.0). Detection of protein phosphorylation was accomplished by scintillation counting following collection of protein in 96 well plates coated with Glitathione or trapping of protein onto phosphocellulose filters. Counts detected by these methodologies minus the appropriate background were assumed to be proportional to the reaction initial rates. IC50 values were determined by measuring enzyme activity in the presence of different inhibitor concentrations (0.1 nM to 50 μM). IC50s were determined by a least squares fit to the equation CPM=Vmax*(1−([I]/(K+[I])))+nsb, or pIC50s were determined by a fit to the equation CPM=nsb+(Vmax−nsb)/(1+(x/10^x−pIC50)), where nsb are the background counts.

Assay [2] concerns the target T2, CDK2 (Homo sapiens, UniProt P24941).
T2 construct: made in house
Briefly: CDK2 substrate phosphorylation assay (biotinylated peptide). The settings on record: read-out: CDK2 inhibition. Format: biochemical. How it is done: as §1
Cyclin dependent protein kinase 2 assays utilized the peptide Biotin-aminohexyl-ARRPMSPKKKA-NH2 as phosphoryl group acceptor. CDK2 was expressed utilizing a baculovirus expression system and was partially purified to comprise 20-80% of total protein, with no detectable competing reactions present. Typically, assays were performed by incubating enzyme (0.2-10 nM), with and without inhibitor, peptide substrate (1-10 nM), [g-^32P]ATP (1-20 nM), and 10-20 mM Mg^2+ for periods of time generally within the range 10-120 minutes. Reactions were terminated with 0.2-2 volumes of either 20% acetic acid or 50-100 mM EDTA buffered to pH 7 (substrate consumption <20%). The buffer employed in enzyme assay was 100 mM HEPES pH 7.5 containing 0.1 mg/mL BSA and 5% DMSO. Inhibitors were diluted in 100% DMSO prior to addition into the assay. Detection of peptide phosphorylation was accomplished by scintillation counting following either collection of peptide onto phosphocellulose filters (for reactions stopped with acetic acid), collection of peptide in wells of 96 well plates coated with Streptavidin (Pierce) (reactions were stopped with EDTA), or addition of Avidin coated Scintillant impregnated beads (Scintillation Proximity Assays from Amersham, reactions were stopped with EDTA). […] Radioactivity was determined by liquid scintillation counting.

Assay [3] concerns human tumor cells (U2OS, MDA-MB-231, SaOs-2, MDA-MB-468). Briefly: Anti-proliferation cell-based assay (BrdU incorporation). The following applies: 18 hr compound incubation, cell line not given, read-out: Anti-proliferative activity. How it is done: Anti-Proliferation Cell-Based Assay
The anti-proliferative activity of compounds was determined measuring the rate of DNA synthesis by bromodeoxyuridine (BrdU) incorporation into cellular DNA. The amount of BrdU in cellular DNA was detected using an anti-BrdU antibody in an ELISA format to allow for rapid throughput. Log-phase growing human tumor cells either containing functional Rb (U2OS, MDA-MB-231) or lacking functional Rb protein (SaOs-2, MDA-MB-468) were plated in medium into 96-well plates (1−6×10^3 cells/100 μL medium/well) and allowed to incubate overnight […]. Compounds (concentration range of 0.046-100 μM) were diluted in medium (final DMSO (v/v) 0.8%), added to wells containing cells, and incubated for 18 hr at 37° C. BrdU (100 μM) was added and incubated for 4 hr. Cells were rinsed with PBS and DNA was denatured by addition of fixation/denaturation solution. Anti-BrdU antibody conjugated to horseradish peroxidase in 1% BSA was added for 2 hr at room temperature. Cells were washed, the chemiluminescence reagent was added, and plates were read in luminometer.
On the technique in general: Dividing cells build labelled thymidine or BrdU into new DNA.

Each structure is given as a SMILES string.

T1 sequence (P11802 whole entry): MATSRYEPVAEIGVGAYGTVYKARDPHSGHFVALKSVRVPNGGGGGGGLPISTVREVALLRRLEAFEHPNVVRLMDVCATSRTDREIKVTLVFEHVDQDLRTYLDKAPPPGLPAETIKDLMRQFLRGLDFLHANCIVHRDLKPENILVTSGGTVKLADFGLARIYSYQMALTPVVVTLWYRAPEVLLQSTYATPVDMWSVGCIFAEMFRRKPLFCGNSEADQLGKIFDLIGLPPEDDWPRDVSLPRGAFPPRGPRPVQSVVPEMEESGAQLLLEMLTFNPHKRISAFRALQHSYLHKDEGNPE
T1 sequence (P24385 whole entry partner): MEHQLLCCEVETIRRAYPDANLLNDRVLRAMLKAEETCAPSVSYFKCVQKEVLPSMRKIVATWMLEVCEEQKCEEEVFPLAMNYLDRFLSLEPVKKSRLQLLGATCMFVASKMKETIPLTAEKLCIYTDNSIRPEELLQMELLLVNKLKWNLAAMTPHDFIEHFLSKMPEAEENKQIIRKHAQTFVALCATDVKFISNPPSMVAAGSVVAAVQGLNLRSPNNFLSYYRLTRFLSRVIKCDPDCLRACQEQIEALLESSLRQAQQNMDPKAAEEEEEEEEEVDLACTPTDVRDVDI

`CN(C)Cc1ccc(N/C=C2\C(=O)Nc3ccc4ncccc4c32)cc1` [Example 1, 1-[(Z)-(4-Dimethylaminomethylanilino)methylidene]-1,3-dihydro-2H-pyrrolo[3,2-f]quinoline-2-one]: the IC50 in assay [1] was under 100 nM; in assay [2], under 1000 nM; in assay [3], under 1000 nM.
Turning to `O=C1Nc2ccc3ncccc3c2/C1=C/Nc1ccc(CN2CCOCC2)cc1` [Example 10, 1-[(Z)-(4-(4-morpholinyl)methylanilino)methylidene]-1,3-dihydro-2H-pyrrolo[3,2-f]quinoline-2-one], the IC50 in assay [1] was under 100 nM; in assay [2], under 100 nM; in assay [3], under 1000 nM.
As to `CC(C)CN(C)Cc1ccc(N/C=C2\C(=O)Nc3ccc4ncccc4c32)cc1` [Example 6, 1-[(Z)-(4-(N-Methyl)-2-methylpropylaminomethylanilino)methylidene]-1,3-dihydro-2H-pyrrolo[3,2-f]quinoline-2-one], the figures for the IC50 in assay [1], in assay [2] and in assay [3] were under 100 nM, under 1000 nM and under 100 nM, respectively.

The record behind these values is patent US6720332B2, “Oxindole derivatives” (SmithKline Beecham Corporation, priority 2000, dated 2004).
